The source of these data is paper PMC7749613 (Journal of Cachexia, Sarcopenia and Muscle, 2020).

Several values for one entry are separate records, joined by “and”; a condition that tells them apart may be missing. Identical values can stand only once.

Data set [1] deals with T1, OCT2 (Homo sapiens, UniProt O15244).
T1 construct: host or cells: HEK293
T1 sequence (O15244 1-555): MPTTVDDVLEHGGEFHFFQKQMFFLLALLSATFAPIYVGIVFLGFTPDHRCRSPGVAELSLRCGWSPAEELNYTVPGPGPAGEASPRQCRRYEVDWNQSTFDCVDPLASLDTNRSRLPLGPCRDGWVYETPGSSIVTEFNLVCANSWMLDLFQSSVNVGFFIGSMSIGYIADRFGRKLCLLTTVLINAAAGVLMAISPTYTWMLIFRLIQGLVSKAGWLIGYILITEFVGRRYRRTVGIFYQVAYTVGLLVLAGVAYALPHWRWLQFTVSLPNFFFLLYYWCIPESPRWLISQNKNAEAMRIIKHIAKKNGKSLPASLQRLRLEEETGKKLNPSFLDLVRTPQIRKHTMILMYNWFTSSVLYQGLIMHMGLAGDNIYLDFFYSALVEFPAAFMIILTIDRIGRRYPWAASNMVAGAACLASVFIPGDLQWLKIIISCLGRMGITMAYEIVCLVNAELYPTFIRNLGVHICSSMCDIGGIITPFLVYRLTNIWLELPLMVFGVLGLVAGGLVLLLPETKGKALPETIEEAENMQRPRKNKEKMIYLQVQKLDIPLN
Description: Cellular uptake in HEK293/OCT2‐transfected versus mock cells. The class given is in vitro ADME. The conditions noted are these: OCT2, at 5.0 min.
Description: (§4) Cells were then washed three times × 1.0 mL each with pre‐warmed Hank's Balanced Salt Solution (HBSS) buffer. A 0.5 mL aliquot of uptake buffer [HBSS plus 10 mM 4‐(2‐hydroxyethyl)‐1‐piperazineethanesulfonic acid (HEPES), pH 7.4], containing the radiolabelled prototypical substrate and mannitol, was then incubated for various times up to 60 min to determine the optimal incubation time for subsequent experiments (i.e. time of sampling during linear uptake conditions). At the designated times, 1.0 mL of ice‐cold HBSS buffer was added to stop uptake after which the cells were rinsed three times with 1.0 mL with ice‐cold HBSS. Hyamine hydroxide (0.33 mL) was then added to each well to lyse the cells. The cells were transferred into a scintillation vial and mixed with 6.0 mL of cytosine scintillation cocktail. Radioactivity of the solubilized cells was determined with a dual‐channel liquid scintillation counter (Beckman LS 6000; Beckman Coulter Inc., Fullerton, CA) and the protein quantified by a bicinchoninic acid protein assay kit (Pierce Biotechnology; Rockford, IL).

Data set [2] concerns the target T2, human P‐gp (ABCB1, MDR1) (Homo sapiens, UniProt P08183).
T2 construct: host or cells: MDCKII
Description: Transepithelial transport of digoxin (±TCMCB07) in MDCKII/MDR1 cells. The conditions noted are these: MDCKII/MDR1, digoxin alone. The class given is in vitro ADME. On the procedure: (§1) Cells were then washed three times, each with 0.5 mL pre‐warmed HBSS buffer. […] The cells were then incubated for various times up to 60 min. […] At the designated times, 15 μL of apical buffer and 50 μL of basolateral buffer were sampled. Once all the samples were collected, 0.5 mL of ice‐cold HBSS buffer was added to the well to stop transport after which the cells were rinsed three times with 0.5 mL of ice‐cold HBSS. The filters with monolayers were then detached from the chamber and placed in a scintillation vial, and the cells were lysed with 0.33 mL hyamine hydroxide.
(§2) The permeability of digoxin and rosuvastatin (prototypical substrates for MDR1 and BCRP, respectively) was determined by the following ^18 : (4) Papp=CR·VR/CD^o·A·∆Δt, where Papp is the apparent permeability, CR is the concentration of substrate in the receiver chamber, CD^o is the concentration of substrate in the donor chamber at time zero, VR is the volume of buffer in the receiver chamber, A is the surface area of the insert filter membrane, and ∆t is the time over which permeability is measured.

Data set [3] in a line: Transepithelial transport in MDCKII mock cells. The class given is in vitro ADME. The conditions noted are these: dog, MDCK. On the procedure: as §1, §2
The target of data set [4] is T3, BCRP (ABCG2) (Homo sapiens, UniProt Q9UNQ0).
T3 construct: host or cells: MDCKII
T3 sequence (Q9UNQ0 1-655): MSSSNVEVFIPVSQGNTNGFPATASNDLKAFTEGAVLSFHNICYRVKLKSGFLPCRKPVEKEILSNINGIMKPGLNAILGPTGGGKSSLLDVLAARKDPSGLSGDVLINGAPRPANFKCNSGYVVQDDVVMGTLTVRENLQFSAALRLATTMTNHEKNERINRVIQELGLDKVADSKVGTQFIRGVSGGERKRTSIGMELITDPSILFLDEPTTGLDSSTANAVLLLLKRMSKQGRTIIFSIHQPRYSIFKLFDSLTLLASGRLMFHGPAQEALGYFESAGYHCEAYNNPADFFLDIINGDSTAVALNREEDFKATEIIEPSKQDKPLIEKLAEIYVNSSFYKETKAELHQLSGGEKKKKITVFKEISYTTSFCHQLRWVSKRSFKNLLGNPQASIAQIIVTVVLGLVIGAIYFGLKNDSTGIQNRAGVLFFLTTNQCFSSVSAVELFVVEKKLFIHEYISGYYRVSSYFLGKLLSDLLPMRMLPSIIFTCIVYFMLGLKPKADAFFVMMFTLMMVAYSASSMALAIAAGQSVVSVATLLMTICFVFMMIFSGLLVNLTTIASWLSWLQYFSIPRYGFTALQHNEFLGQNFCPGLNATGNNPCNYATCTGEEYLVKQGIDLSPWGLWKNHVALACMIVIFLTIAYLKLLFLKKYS
As to the kind of experiment: Transepithelial transport of rosuvastatin (±TCMCB07) in MDCKII/BCRP cells. The format is in vitro ADME. The conditions noted are these: human, pH 7.4, MDCKII/BCRP, rosuvastatin alone. On the procedure: as §1, §2
A similar analysis can be performed for rosuvastatin by substituting ERRos for ERDig and ERRos+T for ERDig+T in Eqn 6.

In data set [5] the target is T4, OAT3 (Homo sapiens, UniProt Q8TCC7).
T4 construct: host or cells: HEK293
T4 sequence (Q8TCC7 1-542): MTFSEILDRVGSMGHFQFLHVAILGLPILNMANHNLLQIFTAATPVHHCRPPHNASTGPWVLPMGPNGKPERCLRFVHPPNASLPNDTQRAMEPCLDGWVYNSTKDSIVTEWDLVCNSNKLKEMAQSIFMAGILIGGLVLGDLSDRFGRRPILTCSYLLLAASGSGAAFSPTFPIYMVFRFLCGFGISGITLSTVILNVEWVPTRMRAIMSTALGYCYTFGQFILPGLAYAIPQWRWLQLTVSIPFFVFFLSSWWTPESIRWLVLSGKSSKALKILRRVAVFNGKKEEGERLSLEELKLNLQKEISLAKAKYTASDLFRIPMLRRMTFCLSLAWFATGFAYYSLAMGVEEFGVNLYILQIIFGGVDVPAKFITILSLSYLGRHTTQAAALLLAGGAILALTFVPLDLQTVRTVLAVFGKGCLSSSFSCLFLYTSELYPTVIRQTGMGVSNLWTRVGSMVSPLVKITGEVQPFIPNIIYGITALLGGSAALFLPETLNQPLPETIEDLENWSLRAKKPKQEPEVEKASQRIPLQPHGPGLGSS
Description: Cellular uptake in HEK293/OAT3‐transfected versus mock cells. The format is in vitro ADME. The conditions noted are these: OAT3, at 5.0 min.
Description: as §4

The target of data set [6] is T5, OATP2B1 (Homo sapiens, UniProt O94956).
T5 construct: host or cells: HEK293
T5 sequence (O94956 1-709): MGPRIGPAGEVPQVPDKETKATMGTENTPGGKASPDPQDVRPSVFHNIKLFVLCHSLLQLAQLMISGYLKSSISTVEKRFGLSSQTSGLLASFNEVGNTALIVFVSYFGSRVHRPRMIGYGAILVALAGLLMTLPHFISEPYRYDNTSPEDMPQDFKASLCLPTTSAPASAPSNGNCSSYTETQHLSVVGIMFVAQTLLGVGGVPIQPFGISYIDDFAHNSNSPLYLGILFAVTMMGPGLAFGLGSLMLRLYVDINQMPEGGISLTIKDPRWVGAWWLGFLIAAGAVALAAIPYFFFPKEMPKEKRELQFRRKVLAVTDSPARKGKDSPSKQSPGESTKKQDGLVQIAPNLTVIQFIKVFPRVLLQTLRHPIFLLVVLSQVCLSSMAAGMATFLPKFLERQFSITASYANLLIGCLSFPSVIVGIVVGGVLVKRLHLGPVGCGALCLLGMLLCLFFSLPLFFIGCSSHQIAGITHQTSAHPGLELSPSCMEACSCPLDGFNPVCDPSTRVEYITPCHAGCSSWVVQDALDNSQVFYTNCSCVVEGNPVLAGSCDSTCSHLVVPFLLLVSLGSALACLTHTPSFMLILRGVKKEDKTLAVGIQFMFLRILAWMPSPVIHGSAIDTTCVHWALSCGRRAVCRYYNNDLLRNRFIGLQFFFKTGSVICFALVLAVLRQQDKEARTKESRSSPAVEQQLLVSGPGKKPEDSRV
Description: Cellular uptake in HEK293/OATP2B1‐transfected versus mock cells. The class given is in vitro ADME. The conditions noted are these: OATP2B1, at 1.5 min.
Description: as §4

Data set [7] has as its target T6, MATE1 (Homo sapiens, UniProt Q96FL8).
T6 sequence (Q96FL8 1-570): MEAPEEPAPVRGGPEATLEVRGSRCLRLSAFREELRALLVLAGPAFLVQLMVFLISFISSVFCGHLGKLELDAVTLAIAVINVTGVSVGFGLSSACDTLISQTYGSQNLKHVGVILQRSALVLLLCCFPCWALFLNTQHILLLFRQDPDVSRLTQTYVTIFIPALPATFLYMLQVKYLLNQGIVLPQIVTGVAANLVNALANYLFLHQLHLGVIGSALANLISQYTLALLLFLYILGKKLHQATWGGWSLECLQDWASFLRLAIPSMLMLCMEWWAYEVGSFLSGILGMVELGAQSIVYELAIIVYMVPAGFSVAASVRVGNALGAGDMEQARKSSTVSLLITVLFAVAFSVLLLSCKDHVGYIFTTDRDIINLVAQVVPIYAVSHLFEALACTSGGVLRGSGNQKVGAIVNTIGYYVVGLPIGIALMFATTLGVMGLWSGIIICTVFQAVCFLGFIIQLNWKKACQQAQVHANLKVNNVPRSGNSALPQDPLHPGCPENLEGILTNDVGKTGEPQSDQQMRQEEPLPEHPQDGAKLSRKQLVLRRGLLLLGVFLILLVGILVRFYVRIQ
As to the kind of experiment: Cellular uptake in HEK293/MATE1‐transfected versus mock cells. The class given is in vitro ADME. On the set-up: host or cells: HEK293. The conditions noted are these: MATE1, at 2.0 min. On the procedure:
(§3) However, for these studies, a different incubation buffer was used (145 mM NaCl, 3 mM KCl, 1 mM CaCl2, 0.5 mM MgCl2, 5 mM glucose, and 5 mM HEPES, pH 7.4). ^13 Moreover, intracellular acidification was achieved by preincubating the cells in buffer containing 30 mM ammonium chloride for 20 min at 37°C. […] Radioactivity and protein measurements were performed as described previously.

Data set [8] deals with MATE2‐K (Homo sapiens, UniProt Q86VL8). Description: Cellular uptake in HEK293/MATE2‐K‐transfected versus mock cells. The format is in vitro ADME. More on the design: host or cells: HEK293. The conditions noted are these: at 2.0 min. On the procedure:
as §3

Data set [9] can be described thus: In vivo mass balance study (urinary and faecal recovery) in mice. The protocol:
Each mouse was then placed in a metabolic cage for 24 h, along with food and water, and the urine and faeces were collected. The metabolic cage was washed several times, after which 100 μL aliquots of diluted urine and faeces was placed in separate vials. Radioactivity measurements were then performed as described previously. All animal procedures were approved by the Institutional Animal Care and Use Committee at the University of Michigan, Ann Arbor.

[10] abbreviates: table values multiplied ×10^6, cm/s.

T2 sequence (P08183 whole entry): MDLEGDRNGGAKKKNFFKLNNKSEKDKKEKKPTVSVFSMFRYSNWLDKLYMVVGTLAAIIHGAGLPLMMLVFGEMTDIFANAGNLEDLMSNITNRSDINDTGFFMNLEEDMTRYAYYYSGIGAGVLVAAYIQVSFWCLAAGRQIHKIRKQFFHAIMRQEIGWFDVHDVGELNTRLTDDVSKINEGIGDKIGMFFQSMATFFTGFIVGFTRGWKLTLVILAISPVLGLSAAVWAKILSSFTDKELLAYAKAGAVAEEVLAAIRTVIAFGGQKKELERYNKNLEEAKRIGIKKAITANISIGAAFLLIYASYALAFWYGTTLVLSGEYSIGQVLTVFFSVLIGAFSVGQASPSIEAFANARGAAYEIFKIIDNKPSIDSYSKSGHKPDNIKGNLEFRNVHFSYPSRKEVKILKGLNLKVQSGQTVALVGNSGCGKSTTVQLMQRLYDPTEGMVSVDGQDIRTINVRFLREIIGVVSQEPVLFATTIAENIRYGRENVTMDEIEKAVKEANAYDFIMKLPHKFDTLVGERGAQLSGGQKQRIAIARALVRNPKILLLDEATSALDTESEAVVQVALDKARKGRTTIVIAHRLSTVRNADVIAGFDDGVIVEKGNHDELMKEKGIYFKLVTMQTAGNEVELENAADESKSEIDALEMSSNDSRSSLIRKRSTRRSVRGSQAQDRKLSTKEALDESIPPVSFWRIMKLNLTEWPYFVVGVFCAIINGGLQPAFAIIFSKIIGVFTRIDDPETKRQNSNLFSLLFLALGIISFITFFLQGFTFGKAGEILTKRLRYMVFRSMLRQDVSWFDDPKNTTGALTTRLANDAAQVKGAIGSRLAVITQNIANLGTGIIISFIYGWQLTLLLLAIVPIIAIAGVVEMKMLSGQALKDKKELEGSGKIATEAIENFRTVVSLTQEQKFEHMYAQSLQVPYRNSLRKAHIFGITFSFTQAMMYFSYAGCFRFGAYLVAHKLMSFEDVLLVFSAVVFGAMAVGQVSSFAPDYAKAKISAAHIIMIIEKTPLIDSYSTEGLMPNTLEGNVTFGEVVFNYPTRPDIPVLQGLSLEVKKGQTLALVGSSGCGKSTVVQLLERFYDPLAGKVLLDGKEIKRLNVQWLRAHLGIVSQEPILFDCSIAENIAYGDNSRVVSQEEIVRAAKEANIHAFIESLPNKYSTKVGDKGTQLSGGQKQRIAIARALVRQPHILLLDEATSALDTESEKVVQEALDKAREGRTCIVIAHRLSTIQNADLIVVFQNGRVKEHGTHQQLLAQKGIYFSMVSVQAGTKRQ
Sequence of MATE2‐K (Q86VL8 1-566 isoform Q86VL8-3): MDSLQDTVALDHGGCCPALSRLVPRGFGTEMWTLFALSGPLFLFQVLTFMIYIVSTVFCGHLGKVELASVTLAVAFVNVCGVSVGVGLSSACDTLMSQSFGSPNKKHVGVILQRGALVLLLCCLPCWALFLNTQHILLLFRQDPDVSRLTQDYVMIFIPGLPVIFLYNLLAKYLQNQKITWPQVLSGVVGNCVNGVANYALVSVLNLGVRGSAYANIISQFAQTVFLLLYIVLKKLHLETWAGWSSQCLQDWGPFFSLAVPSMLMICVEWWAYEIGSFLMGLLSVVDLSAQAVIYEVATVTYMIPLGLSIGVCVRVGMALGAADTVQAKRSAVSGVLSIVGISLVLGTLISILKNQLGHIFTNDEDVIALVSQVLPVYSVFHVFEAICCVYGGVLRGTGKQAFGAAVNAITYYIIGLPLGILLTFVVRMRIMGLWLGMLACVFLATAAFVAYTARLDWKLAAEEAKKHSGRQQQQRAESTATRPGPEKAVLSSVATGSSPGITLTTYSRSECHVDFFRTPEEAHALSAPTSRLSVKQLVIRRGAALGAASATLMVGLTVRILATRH

`C[n+]1ccc(-c2ccccc2)cc1` [1‐methyl‐4‐phenylpyridinium]: in data set [1], the “mean enhancement of uptake (transfected/mock)” value was 373.
`C[C@H]1O[C@@H](O[C@H]2[C@@H](O)C[C@H](O[C@H]3[C@@H](O)C[C@H](O[C@H]4CC[C@@]5(C)[C@H](CC[C@@H]6[C@@H]5C[C@@H](O)[C@]5(C)[C@@H](C7=CC(=O)OC7)CC[C@]65O)C4)O[C@@H]3C)O[C@@H]2C)C[C@H](O)[C@@H]1O` [Digoxin, digoxin]: the “Efflux ratio of digoxin, Papp B to A/Papp A to B” value in [2] turned out to be 24.2 ± 7.3. In data set [2] (setting [10]), the “Papp (A to B) of digoxin” value is given as 1.1 ± 0.3 ×10^−6 cm/s and the “Papp (B to A) of digoxin” value was 22.4 ± 4.0 ×10^−6 cm/s. Also, in [3] (pH 7.4, read-out: mean efflux ratio of digoxin), the efflux ratio at 38 nM worked out at 4.5. The Papp A→B at 38 nM in data set [3] (pH 7.4, read-out: mean permeability of digoxin (A to B)) was 6.3 ×10⁻⁶ cm/s. In addition, the Papp B→A at 38 nM in [3] (pH 7.4, read-out: mean permeability of digoxin (B to A)) was 20.8 ×10⁻⁶ cm/s.
`CC(C)c1nc(N(C)S(C)(=O)=O)nc(-c2ccc(F)cc2)c1/C=C/[C@@H](O)C[C@@H](O)CC(=O)O` [Rosuvastatin, rosuvastatin]: the efflux ratio at 21 nM in data set [3] (pH 7.4, read-out: mean efflux ratio of rosuvastatin) stood at 3.1; in data set [4] (read-out: Efflux ratio of rosuvastatin, Papp B to A/Papp A to B), 7 ± 0.3. In addition, the Papp A→B at 21 nM in [3] (pH 7.4, read-out: mean permeability of rosuvastatin (A to B)) came to 18 ×10⁻⁶ cm/s; in data set [4] (setting [10]), 11 ± 0.1 ×10⁻⁶ cm/s. In addition, the Papp B→A at 21 nM is 55 ×10⁻⁶ cm/s in data set [3] (pH 7.4, read-out: mean permeability of rosuvastatin (B to A)) and 76.8 ± 4.1 ×10⁻⁶ cm/s in data set [4] (setting [10]).
In the case of `C[C@]12CC[C@@H]3c4ccc(OS(=O)(=O)O)cc4CC[C@H]3[C@@H]1CCC2=O` [estrone 3‐sulfate], the entries for the “mean enhancement of uptake (transfected/mock)” value in [5] and in [6] were 470 and 63.5, respectively.
As to `CC[N+](CC)(CC)CC` [tetraethylammonium], the “mean enhancement of uptake (transfected/mock)” value in [7] was 122; in data set [8] it was 46.7.
Consider inulin, for which the “% Urinary recovery, intravenous inulin” value in data set [9] (individual mice, [3H]inulin iv bolus given with intravenous TCMCB07, 24 h collection) was 104% and 93.2% and 95.1%; in data set [9] (individual mice, [3H]inulin iv bolus given with oral TCMCB07, 24 h collection (mouse 2: 48 h)) it was 106% and 100% and 107%; in [9] (mean of 3 mice, given with intravenous TCMCB07), 97.4%; in data set [9] (mean of 4 mice, given with oral TCMCB07), 105%.
